Key:
[1] = target: Platelet-activating factor receptor (Homo sapiens, UniProt P25105); assay type: tissue-based; further: in other assays of this panel Not Active means under 50% inhibition at 10 µM
[2] = target: Estrogen receptor beta (Homo sapiens, UniProt Q92731); settings: sf9; further: in other assays of this panel Not Active means under 50% inhibition at 10 µM
[3] = DRUGMATRIX: Serotonin (5-Hydroxytryptamine) 5-HT3 radioligand binding (ligand: [3H] GR-65630); assay type: cell membranes, Membrane; settings: hek293; Not Active = under 50% inhibition at 10 µM
[4] = DRUGMATRIX: Leukotriene, BLT (LTB4) radioligand binding (ligand: [3H]LTB4); assay type: cell membranes, Membrane; settings: u-937; Not Active = under 50% inhibition at 10 µM
[5] = target: T1, Substance-K receptor (Homo sapiens, UniProt P21452); assay type: cell membranes, CHO, Membrane; further: in other assays of this panel Not Active means under 50% inhibition at 10 µM
T1 sequence (P21452 whole entry): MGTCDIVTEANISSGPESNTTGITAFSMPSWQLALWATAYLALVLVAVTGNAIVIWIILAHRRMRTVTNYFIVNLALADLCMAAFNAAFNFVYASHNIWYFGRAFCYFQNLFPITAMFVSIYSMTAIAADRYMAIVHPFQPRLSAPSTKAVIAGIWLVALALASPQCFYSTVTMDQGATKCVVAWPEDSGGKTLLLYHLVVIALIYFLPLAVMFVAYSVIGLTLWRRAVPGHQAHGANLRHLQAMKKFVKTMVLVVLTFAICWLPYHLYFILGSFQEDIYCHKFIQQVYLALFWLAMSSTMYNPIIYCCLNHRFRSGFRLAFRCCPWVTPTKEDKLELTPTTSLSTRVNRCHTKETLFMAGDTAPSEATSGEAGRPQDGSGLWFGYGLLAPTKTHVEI

[6] = target: Sodium-dependent noradrenaline transporter (Homo sapiens, UniProt P23975); assay: DRUGMATRIX: Norepinephrine Transporter radioligand binding (ligand: [125I] RTI-55); assay type: cell membranes, MDCK, Membrane; settings: Not Active = under 50% inhibition at 10 µM
Sequence of Sodium-dependent noradrenaline transporter (P23975 whole entry): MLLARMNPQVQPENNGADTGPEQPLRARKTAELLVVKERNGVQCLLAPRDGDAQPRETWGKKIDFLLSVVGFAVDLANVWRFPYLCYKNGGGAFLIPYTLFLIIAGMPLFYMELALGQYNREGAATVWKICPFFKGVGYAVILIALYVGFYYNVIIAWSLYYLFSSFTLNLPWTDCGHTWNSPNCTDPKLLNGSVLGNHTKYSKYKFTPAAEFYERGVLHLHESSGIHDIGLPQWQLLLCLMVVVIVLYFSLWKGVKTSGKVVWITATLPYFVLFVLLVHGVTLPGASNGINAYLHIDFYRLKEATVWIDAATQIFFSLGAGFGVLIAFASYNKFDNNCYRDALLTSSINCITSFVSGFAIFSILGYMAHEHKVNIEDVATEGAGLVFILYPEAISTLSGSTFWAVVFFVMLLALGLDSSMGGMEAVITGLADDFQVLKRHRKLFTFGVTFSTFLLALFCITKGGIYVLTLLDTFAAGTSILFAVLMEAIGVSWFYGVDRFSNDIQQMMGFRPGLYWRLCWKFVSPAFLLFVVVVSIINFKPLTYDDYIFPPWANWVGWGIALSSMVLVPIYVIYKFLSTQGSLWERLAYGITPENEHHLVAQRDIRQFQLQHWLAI

[7] = target: T2, Type-2 angiotensin II receptor (Homo sapiens, UniProt P50052); assay type: cell-based; settings: cho-k1; further: in other assays of this panel Not Active means under 50% inhibition at 10 µM
T2 sequence (P50052 whole entry): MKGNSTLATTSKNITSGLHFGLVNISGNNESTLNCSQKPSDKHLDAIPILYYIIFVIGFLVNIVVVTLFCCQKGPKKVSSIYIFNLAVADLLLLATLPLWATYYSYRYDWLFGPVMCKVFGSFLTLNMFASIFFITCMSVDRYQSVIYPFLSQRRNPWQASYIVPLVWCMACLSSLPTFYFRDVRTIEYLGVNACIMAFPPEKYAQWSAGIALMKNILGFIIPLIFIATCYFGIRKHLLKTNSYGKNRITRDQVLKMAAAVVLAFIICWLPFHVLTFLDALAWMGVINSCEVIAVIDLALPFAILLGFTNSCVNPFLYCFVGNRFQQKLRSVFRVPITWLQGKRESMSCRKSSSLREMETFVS

Sequence of Platelet-activating factor receptor (P25105 whole entry): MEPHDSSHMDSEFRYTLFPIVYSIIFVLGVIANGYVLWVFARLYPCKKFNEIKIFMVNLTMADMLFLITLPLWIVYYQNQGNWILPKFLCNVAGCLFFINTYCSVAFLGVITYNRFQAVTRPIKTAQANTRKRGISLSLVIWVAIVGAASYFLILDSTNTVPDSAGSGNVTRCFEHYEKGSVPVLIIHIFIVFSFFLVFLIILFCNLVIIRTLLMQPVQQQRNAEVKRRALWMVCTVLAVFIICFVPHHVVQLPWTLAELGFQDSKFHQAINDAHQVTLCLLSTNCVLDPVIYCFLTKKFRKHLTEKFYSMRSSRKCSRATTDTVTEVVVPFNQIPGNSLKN
Sequence of Estrogen receptor beta (Q92731 whole entry): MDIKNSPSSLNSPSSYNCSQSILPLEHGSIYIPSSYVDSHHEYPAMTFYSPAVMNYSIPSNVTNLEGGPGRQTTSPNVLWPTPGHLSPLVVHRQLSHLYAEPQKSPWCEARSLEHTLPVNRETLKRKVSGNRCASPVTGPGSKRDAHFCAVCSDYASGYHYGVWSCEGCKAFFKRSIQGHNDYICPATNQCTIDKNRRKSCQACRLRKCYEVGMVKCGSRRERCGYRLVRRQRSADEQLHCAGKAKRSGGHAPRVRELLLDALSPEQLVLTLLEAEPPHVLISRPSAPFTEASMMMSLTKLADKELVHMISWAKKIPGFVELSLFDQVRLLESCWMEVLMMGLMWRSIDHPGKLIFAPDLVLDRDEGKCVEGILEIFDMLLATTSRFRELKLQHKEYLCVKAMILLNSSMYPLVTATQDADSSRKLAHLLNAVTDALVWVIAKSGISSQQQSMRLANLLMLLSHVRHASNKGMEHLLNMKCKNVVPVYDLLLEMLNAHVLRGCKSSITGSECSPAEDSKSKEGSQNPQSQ

Compound	IC50 [1]	IC50 [2]	IC50 [3]	Ki [3]	IC50 [4]	Ki [4]	IC50 ([5]; cho)	IC50 ([6]; mdck)	IC50 [7]	IC50 ([6]; read-out: IC50) [µM]	Ki ([6]; read-out: Ki) [µM]	Ki [1]	Ki [2]	Ki ([5]; cho)	Ki ([6]; mdck)	Ki [7]	IC50 ([5]; read-out: IC50) [µM]	Ki ([5]; read-out: Ki) [µM]
NC(=O)NC(=O)Cc1ccccc1 [PHENACEMIDE]	Not Active	Not Active	Not Active	Not Active	Not Active	Not Active	Not Active	Not Active	Not Active									
Cc1cc(C(C)(C)C)c(O)c(C)c1CC1=NCCN1 [OXYMETAZOLINE]	Not Active	Not Active	Not Active	Not Active	Not Active	Not Active	Not Active	Not Active	Not Active									
CC(CN1c2ccccc2Sc2ccccc21)N(C)C (stereo not drawn) [PROMETHAZINE]	Not Active	Not Active	Not Active	Not Active	Not Active	Not Active	Not Active		Not Active	4.24	4.2							
C[C@]12CC[C@@H](O)C[C@@H]1CC[C@@H]1[C@@H]2CC[C@]2(C)C(=O)CC[C@@H]12 [ANDROSTERONE]	Not Active	Not Active	Not Active	Not Active	Not Active	Not Active	Not Active	Not Active	Not Active									
Cc1ccnc2c1NC(=O)c1cccnc1N2C1CC1 [NEVIRAPINE]	Not Active	Not Active	Not Active	Not Active	Not Active	Not Active	Not Active	Not Active	Not Active									
COPPER(II) OXIDE	Not Active	Not Active	Not Active	Not Active	Not Active	Not Active	Not Active	Not Active	Not Active			Not Active	Not Active	Not Active	Not Active	Not Active		
O=C(O)CO [GLYCOLIC ACID]	Not Active	Not Active	Not Active	Not Active	Not Active	Not Active	Not Active	Not Active	Not Active									
COc1cc(NC(C)CCCN)c2ncccc2c1 (stereo not drawn) [PRIMAQUINE]	Not Active	Not Active	Not Active	Not Active	Not Active	Not Active	Not Active	Not Active	Not Active									
COc1ccc(Cl)cc1C(=O)NCCc1ccc(S(=O)(=O)NC(=O)NC2CCCCC2)cc1 [GLYBURIDE]	Not Active	Not Active	Not Active	Not Active	Not Active	Not Active	Not Active	Not Active	Not Active									
CCO [ALCOHOL]	Not Active	Not Active	Not Active	Not Active	Not Active	Not Active	Not Active	Not Active	Not Active									
CC(C)(c1ccc(O)cc1)c1ccc(O)cc1 [BISPHENOL A]	Not Active	Not Active	Not Active	Not Active	Not Active	Not Active	Not Active		Not Active	16.6	16.5							
CC12CCC(CC1=O)C2(C)C (stereo not drawn) [CAMPHOR]	Not Active	Not Active	Not Active	Not Active	Not Active	Not Active	Not Active	Not Active	Not Active									
Oc1ncnc2[nH]ncc12 [ALLOPURINOL]	Not Active	Not Active	Not Active	Not Active	Not Active	Not Active	Not Active	Not Active	Not Active									
NC(=O)CN1CCCC1=O	Not Active	Not Active	Not Active	Not Active	Not Active	Not Active	Not Active	Not Active	Not Active									
CCN1CCN(C(=O)N[C@@H](C(=O)N[C@@H]2C(=O)N3[C@@H]2SC(C)(C)[C@@H]3C(=O)O)c2ccccc2)C(=O)C1=O [PIPERACILLIN]	Not Active	Not Active	Not Active	Not Active	Not Active	Not Active	Not Active	Not Active	Not Active									
CCCCCCNC(=O)n1cc(F)c(=O)[nH]c1=O [CARMOFUR]	Not Active	Not Active	Not Active	Not Active	Not Active	Not Active	Not Active	Not Active	Not Active									
CCN(CCO)CCCC(C)Nc1ccnc2cc(Cl)ccc12 (stereo not drawn) [HYDROXYCHLOROQUINE]	Not Active	Not Active	Not Active	Not Active	Not Active	Not Active	Not Active	Not Active	Not Active									
Clc1cc(Cl)c(OCC#CI)cc1Cl [HALOPROGIN]	Not Active	Not Active	Not Active	Not Active	Not Active	Not Active			Not Active	2.77	2.75						1.47	0.491
Cl.NC[C@H]1CC[C@H](C(=O)Oc2ccc(CCC(=O)O)cc2)CC1 [CETRAXATE HYDROCHLORIDE]	Not Active	Not Active	Not Active	Not Active	Not Active	Not Active	Not Active	Not Active	Not Active									
COc1cc([C@@H]2c3cc4c(cc3[C@H](O)[C@H]3COC(=O)[C@H]23)OCO4)cc(OC)c1OC [PODOFILOX]	Not Active	Not Active	Not Active	Not Active	Not Active	Not Active	Not Active	Not Active	Not Active									
COc1cc(/C=C/C(=O)O)ccc1O [FERULATE]	Not Active	Not Active	Not Active	Not Active	Not Active	Not Active	Not Active	Not Active	Not Active									
O=C(O)CCc1nc(-c2ccccc2)c(-c2ccccc2)o1 [OXAPROZIN]	Not Active	Not Active	Not Active	Not Active	Not Active	Not Active	Not Active	Not Active	Not Active									
c1ccc(Cn2ccnc2)cc1	Not Active	Not Active	Not Active	Not Active	Not Active	Not Active	Not Active	Not Active	Not Active									
Nc1nc(N)c2nc(CNc3ccc(C(=O)N[C@@H](CCC(=O)O)C(=O)O)cc3)cnc2n1 [AMINOPTERIN]	Not Active	Not Active	Not Active	Not Active	Not Active	Not Active	Not Active	Not Active	Not Active									
CC(=O)Nc1ccc2c(c1)Cc1ccccc1-2 [2-ACETYLAMINOFLUORENE]	Not Active	Not Active	Not Active	Not Active	Not Active	Not Active	Not Active		Not Active	8.59	8.52							
C#C[C@]1(O)CC[C@H]2[C@@H]3CCC4=CC(=O)CC[C@@H]4[C@H]3CC[C@@]21C [NORETHINDRONE]	Not Active	Not Active	Not Active	Not Active	Not Active	Not Active	Not Active	Not Active	Not Active									
CC[C@H]1OC(=O)[C@H](C)[C@@H](O[C@H]2C[C@@](C)(OC)[C@@H](O)[C@H](C)O2)[C@H](C)[C@@H](O[C@@H]2O[C@H](C)C[C@H](N(C)C)[C@H]2O)[C@](C)(O)C[C@@H](C)C(=O)[C@H](C)[C@@H](O)[C@]1(C)O [ERYTHROMYCIN]	Not Active	Not Active	Not Active	Not Active	Not Active	Not Active	Not Active	Not Active	Not Active									

From ChEMBL document CHEMBL1909046, “DrugMatrix in vitro pharmacology data”
